In patent publication US9127040B2, “Regulation of sodium channels by PLUNC proteins” (The University of North Carolina at Chapel Hill, priority 2011, dated 2015):
Ends that are not written are not given here.

Target: T1, βENaC (Homo sapiens, UniProt P51168)
T1 construct: expressed in transfected cells; host or cells: HEK293T cells (lysate)
T1 sequence (P51168 1-640): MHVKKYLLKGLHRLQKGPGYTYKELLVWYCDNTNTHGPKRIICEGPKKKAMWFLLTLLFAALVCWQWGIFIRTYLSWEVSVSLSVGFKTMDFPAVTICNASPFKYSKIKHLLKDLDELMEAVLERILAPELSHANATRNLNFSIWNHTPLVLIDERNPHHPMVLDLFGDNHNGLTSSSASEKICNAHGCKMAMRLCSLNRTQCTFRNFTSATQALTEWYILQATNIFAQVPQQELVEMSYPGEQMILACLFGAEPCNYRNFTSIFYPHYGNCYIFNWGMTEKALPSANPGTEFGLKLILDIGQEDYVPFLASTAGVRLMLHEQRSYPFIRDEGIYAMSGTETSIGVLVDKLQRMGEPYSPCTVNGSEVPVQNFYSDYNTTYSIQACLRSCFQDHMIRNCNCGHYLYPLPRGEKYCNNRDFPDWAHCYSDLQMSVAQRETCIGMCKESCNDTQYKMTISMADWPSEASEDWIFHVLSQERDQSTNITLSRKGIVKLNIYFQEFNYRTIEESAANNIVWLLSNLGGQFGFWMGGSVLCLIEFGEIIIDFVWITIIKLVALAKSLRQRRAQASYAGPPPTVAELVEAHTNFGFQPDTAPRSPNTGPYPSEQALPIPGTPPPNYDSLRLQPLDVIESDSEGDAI
Assay: Biotinylated peptide pull-down of ENaC subunits from HEK293T cells
Format: binding
Experimental: HEK293T cells were transfected with double-tagged human ENaC subunits with HA and V5 epitopes at the N- and C-termini, respectively, in combination with wild-type untagged subunit cDNA. When all three ENaC subunits were expressed, 0.5 μg of each subunit were transfected per well. When expressed individually, 0.75 μg of the subunit were transfected per well. The transfected cells were lysed 24 h later using NP-40 buffer with 1× complete EDTA-free protease inhibitor (Roche, Basel, Switzerland). The lysate was centrifuged at 16,300×g for 15 minutes at 4° C. and the supernatant collected. Protein concentration was determined using the BCA assay and 500 μg of protein plus 0.25 mg peptide and 100 μL of neutravidin were added to a spin column and rotated end-over-end at 4° C. for 24 h (all ThermoFisher Scientific, Rockford, Ill., USA). Flow-through was collected by centrifugation at 1000×g for 30 s. The beads were then washed 5× with NP-40 buffer. Bound protein was eluted by boiling at 95° C. for 10 minutes in 75 μL of 2×LDS NuPAGE sample buffer with 1× sample reducing agent followed by centrifugation at 16,300×g for 2 minutes. Samples were resolved on 4-12% Bis-Tris gels in MES and transferred to a nitrocellulose membrane using iBlot, setting P3 for 8 min (Invitrogen, Carlsbad, Calif., USA). The membrane was probed using 1:1000 anti-V5 antibody (Invitrogen, Carlsbad, Calif., USA) overnight at 4° C. in 3% fish gelatin in TBS-T. The blot was then incubated for 1 h at room temperature with an ECL sheep anti-mouse IgG secondary antibody and detected by ECL reagent (ThermoFisher Scientific, Waltham, Mass., USA) or by incubation with a goat anti-mouse IRDye secondary antibody and analyzed by an Odyssey infrared imaging system (LI-COR Biosciences, Lincoln, Nebr., USA).
Peptide pull-down assays were performed as described above. Samples were eluted by the addition of 100 μL of 0.1 M sodium citrate, pH 5.5, 0.1% SDS to the beads and incubating at 100° C. for 2 minutes, followed by centrifugation at 16,300×g for 2 minutes. […]

With GGLPVPLDQTLPLNVNPA [S18] the “glycosylation dependence of β-ENaC interaction” value (EndoH treated elution, tunicamycin treated cells) was “glycosylation dependent” and the “binding to βENaC (pull-down)” value (subunits individually expressed, biotinylated peptide) was “binds exclusively to βENaC”.
